22 compounds from US20250025443A1, “COMPOUNDS AND METHODS FOR TREATING CORONA VIRUSES” (CLEAR CREEK BIO, INC., priority 2021, published 2025) can be followed below.

The assay deals with SARS-CoV-2 Papain-Like Protease (PLpro) (Severe acute respiratory syndrome coronavirus 2 (2019-nCoV) (SARS-CoV-2), UniProt P0DTD1). Briefly: biochemical. To be noted: PLpro enzymatic fluorescence assay; class symbols; read-out: PLpro IC50.
In the case of `Cc1ccc(OC[C@@H]2CCN2C)cc1C(=O)NC1(c2cc(-c3cn[nH]c3)cc3ncccc23)CC1` [Compound 652, (S)-N-(1-(7-(1H-Pyrazol-4-yl)quinolin-5-yl)cyclopropyl)-2-methyl-5-((1-methylazetidin-2-yl)methoxy)benzamide], the half-maximal inhibitory concentration (IC50) (usually the concentration at which inhibition is half-maximal) was under 100 nM.

Take `Cc1ccc(-c2cc(C3(NC(=O)c4cc(OC[C@@H]5CCN5C)ccc4C)CC3)c3cccnc3c2)o1` [Compound 654, (S)-2-Methyl-5-((1-methylazetidin-2-yl)methoxy)-N-(1-(7-(5-methylfuran-2-yl)quinolin-5-yl)cyclopropyl)benzamide]: the IC50 was under 100 nM.

`Cc1ccc(OC[C@@H]2CCN2C)cc1C(=O)NC1(c2cc(-c3ccoc3)cc3ncccc23)CC1` [Compound 655, (S)—N-(1-(7-(Furan-3-yl)quinolin-5-yl)cyclopropyl)-2-methyl-5-((1-methylazetidin-2-yl)methoxy)benzamide]: the IC50 is under 100 nM.

Consider `Cc1ccc(OC[C@@H]2CCN2)cc1C(=O)NC1(c2cc(-c3ccn(C(F)F)n3)cc3ncccc23)CC1` [Compound 656, (S)-5-(Azetidin-2-ylmethoxy)-N-(1-(7-(1-(difluoromethyl)-1H-pyrazol-3-yl)quinolin-5-yl)cyclopropyl)-2-methylbenzamide], for which the IC50 was under 100 nM.

For the compound `CC(=O)c1ccc(-c2cc(C3(NC(=O)c4cc(OC[C@@H]5CCN5C)ccc4C)CC3)c3cccnc3c2)s1` [Compound 657, (S)-N-(1-(7-(5-Acetylthiophen-2-yl)quinolin-5-yl)cyclopropyl)-2-methyl-5-((1-methylazetidin-2-yl)methoxy)benzamide], the IC50 was under 100 nM.

With `Cc1ccc(OC[C@@H]2CCN2)cc1C(=O)NC1(c2cc(-c3ccc(C#N)s3)cc3ncccc23)CC1` [Compound 658, (S)-5-(Azetidin-2-ylmethoxy)-N-(1-(7-(5-cyanothiophen-2-yl)quinolin-5-yl)cyclopropyl)-2-methylbenzamide], the IC50 was under 100 nM.

`Cc1ccc(OC[C@@H]2CCN2C)cc1C(=O)NC1(c2cc(-c3ccn(-c4ccccc4)n3)cc3ncccc23)CC1` [Compound 659, (S)-2-Methyl-5-((1-methylazetidin-2-yl)methoxy)-N-(1-(7-(1-phenyl-1H-pyrazol-3-yl)quinolin-5-yl)cyclopropyl)benzamide]: the IC50 was under 100 nM.

Regarding `C=C(C)c1cc(C2(NC(=O)c3cc(OC[C@H](C)NC)ccc3C)CC2)c2cccnc2c1` [Compound 660, (S)-2-Methyl-5-(2-(methylamino)propoxy)-N-(1-(7-(prop-1-en-2-yl)quinolin-5-yl)cyclopropyl)benzamide], the IC50 was under 100 nM.

Take `C=Cc1cc(C2(NC(=O)c3cc(OC[C@H](C)NC)ccc3C)CC2)c2cccnc2c1` [Compound 661, (S)-2-Methyl-5-(2-(methylamino)propoxy)-N-(1-(7-vinylquinolin-5-yl)cyclopropyl)benzamide]: the IC50 was under 100 nM.

With `Cc1ccc(OC[C@@H]2CCN2)cc1C(=O)NC1(c2cc(C3=CCCCC3)cc3ncccc23)CC1` [Compound 662, (S)-5-(Azetidin-2-ylmethoxy)-N-(1-(7-(cyclohex-1-en-1-yl)quinolin-5-yl)cyclopropyl)-2-methylbenzamide], the IC50 is under 100 nM.

`Cc1ccc(OC[C@@H]2CCN2C)cc1C(=O)NC1(c2cc(C3=CCCCC3)cc3ncccc23)CC1` [Compound 663, (S)—N-(1-(7-(Cyclohex-1-en-1-yl)quinolin-5-yl)cyclopropyl)-2-methyl-5-((1-methylazetidin-2-yl)methoxy)benzamide]: the IC50 is under 100 nM.

Take `Cc1ccc(OC[C@@H]2CCN2)cc1C(=O)NC1(c2cc(-c3ccn(-c4ccccc4)n3)cc3ncccc23)CC1` [Compound 664, (S)-5-(Azetidin-2-ylmethoxy)-2-methyl-N-(1-(7-(1-phenyl-1H-pyrazol-3-yl)quinolin-5-yl)cyclopropyl)benzamide]: the half-maximal inhibitory concentration (IC50) was under 100 nM.

With `Cc1ccc(OC[C@@H]2CCN2)cc1C(=O)NC1(c2cc(-c3cnn(C)c3)cc3ncccc23)CC1` [Compound 665, (S)-5-(Azetidin-2-ylmethoxy)-2-methyl-N-(1-(7-(1-methyl-1H-pyrazol-4-yl)quinolin-5-yl)cyclopropyl)benzamide], the IC50 is under 100 nM.

Consider `Cc1ccc(OC[C@@H]2CCN2)cc1C(=O)NC1(c2cc(-c3ccc(F)c(Cl)c3)cc3ncccc23)CC1` [Compound 666, (S)-5-(Azetidin-2-ylmethoxy)-N-(1-(7-(3-chloro-4-fluorophenyl)quinolin-5-yl)cyclopropyl)-2-methylbenzamide], for which the IC50 was under 100 nM.

Turning to `Cc1ccc(OC[C@@H]2CCN2)cc1C(=O)NC1(c2cc(/C=C/C3CC3)cc3ncccc23)CC1` [Compound 667, (S,E)-5-(Azetidin-2-ylmethoxy)-N-(1-(7-(2-cyclopropylvinyl)quinolin-5-yl)cyclopropyl)-2-methylbenzamide], the half-inhibitory concentration (IC50) is under 100 nM.

For the compound `Cc1ccc(OC[C@@H]2CCN2C)cc1C(=O)NC1(c2cc(-c3sccc3Cl)cc3ncccc23)CC1` [Compound 668, (S)-N-(1-(7-(3-Chlorothiophen-2-yl)quinolin-5-yl)cyclopropyl)-2-methyl-5-((1-methylazetidin-2-yl)methoxy)benzamide], the concentration for half-maximal inhibition (IC50) was under 100 nM.

For `Cc1ccc(OC[C@@H]2CCN2C)cc1C(=O)NC1(c2cc(-c3ccc(CN4CCCC4)s3)cc3ncccc23)CC1` [Compound 669, (S)-2-Methyl-5-((1-methylazetidin-2-yl)methoxy)-N-(1-(7-(5-(pyrrolidin-1-ylmethyl)thiophen-2-yl)quinolin-5-yl)cyclopropyl)benzamide], the IC50 is under 100 nM.

Regarding `Cc1ccc(OC[C@@H]2CCN2C)cc1C(=O)NC1(c2cc(-c3cnn(C)c3)cc3ncccc23)CC1` [Compound 670, (S)-2-Methyl-N-(1-(7-(1-methyl-1H-pyrazol-4-yl)quinolin-5-yl)cyclopropyl)-5-((1-methylazetidin-2-yl)methoxy)benzamide], the half-inhibitory concentration (IC50) was under 100 nM.

On to `Cc1cc(-c2cc(C3(NC(=O)c4cc(OC[C@@H]5CCN5C)ccc4C)CC3)c3cccnc3c2)c(C)o1` [Compound 671, (S)—N-(1-(7-(2,5-Dimethylfuran-3-yl)quinolin-5-yl)cyclopropyl)-2-methyl-5-((1-methylazetidin-2-yl)methoxy)benzamide], for which the IC50 was under 100 nM.

Regarding `Cc1ccc(OC[C@@H]2CCN2C)cc1C(=O)NC1(c2cc(-c3ccc(=O)[nH]c3)cc3ncccc23)CC1` [Compound 672, (S)-2-Methyl-5-((1-methylazetidin-2-yl)methoxy)-N-(1-(7-(6-oxo-1,6-dihydropyridin-3-yl)quinolin-5-yl)cyclopropyl)benzamide], the IC50 was under 100 nM.

Turning to `Cc1nnc(-c2cc(C3(NC(=O)c4cc(OC[C@@H]5CCN5)ccc4C)CC3)c3cccnc3c2)s1` [Compound 673, (S)-5-(Azetidin-2-ylmethoxy)-2-methyl-N-(1-(7-(5-methyl-1,3,4-thiadiazol-2-yl)quinolin-5-yl)cyclopropyl)benzamide], the IC50 is under 100 nM.

Turning to `Cc1ccc(OC[C@@H]2CCN2)cc1C(=O)NC1(c2cc(-c3ccc(=O)[nH]c3)cc3ncccc23)CC1` [Compound 674, (S)-5-(Azetidin-2-ylmethoxy)-2-methyl-N-(1-(7-(6-oxo-1,6-dihydropyridin-3-yl)quinolin-5-yl)cyclopropyl)benzamide], the IC50 was under 100 nM.
